Source: publication PMC4565880, “Purification and characterization of a novel β-carotene-9′,10′-oxygenase from Saccharomyces cerevisiae ULI3” (Biotechnology Letters, 2015)

System: T1, ScBCO2 (β-carotene-9′,10′-oxygenase)
T1 construct: native enzyme purified from culture supernatant (ammonium sulfate, Q Sepharose, Superdex-200); ~50 kDa by SDS-PAGE; peptide mass fingerprint matched no database entry
Test: HPLC cleavage assay; Hanes-Woolf plot
Type: biochemical, Saccharomyces cerevisiae
Conditions: standard assay: 100 mM Tricine/KOH pH 8.0, 37 °C, 12.5 μM Fe2SO4, Tween 40; temperature of kinetic runs not stated; substrate 10-800 μM
Source text: HPLC cleavage assay; Hanes-Woolf plot on ScBCO2 (β-carotene-9′,10′-oxygenase)

| SMILES | Km |
| --- | --- |
| CC1=C[C@H](O)CC(C)(C)[C@H]1/C=C/C(C)=C/C=C/C(C)=C/C=C/C=C(C)/C=C/C=C(C)/C=C/C1=C(C)C[C@@H](O)CC1(C)C [Lutein] | 105 ± 0.3 µM |
| CC1=C(/C=C/C(C)=C/C=C/C(C)=C/C=C/C=C(C)/C=C/C=C(C)/C=C/C2=C(C)CCCC2(C)C)C(C)(C)CCC1 [β-carotene] | 37 ± 0.2 µM |
| CC1=CCCC(C)(C)[C@H]1/C=C/C(C)=C/C=C/C(C)=C/C=C/C=C(C)/C=C/C=C(C)/C=C/C1=C(C)CCCC1(C)C [α-carotene] | 48 ± 0.3 µM |
